Results published in the supplement of paper PMC10307832.

Key:
Assay in all cases: relative viability (nuclei count vs DMSO), 5 days (fraction); higher = more cells survive
XMD8-85 + Lapatinib = compound: CN1CCN(CC1)C2=CC(=C(C=C2)NC3=NC=C4C(=N3)N(C5=CC=CC=C5C(=O)N4C)C)OC [XMD8-85] + CS(=O)(=O)CCNCc1ccc(-c2ccc3ncnc(Nc4ccc(OCc5cccc(F)c5)c(Cl)c4)c3c2)o1 [Lapatinib] (partner 2 µM)
In short: (§1)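 Five library-drug doses in √10 steps were combined with a fixed anchor-drug dose, or a single drug was given alone, by pin tool to lung cancer cell lines in 1536-well plates the day after seeding. Nuclei were stained and counted after 5 days. Relative viability is the nuclei count in treated wells over that in vehicle wells, taken as the median of duplicate plates.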

XMD8-85 + Dasatinib = compound: CN1CCN(CC1)C2=CC(=C(C=C2)NC3=NC=C4C(=N3)N(C5=CC=CC=C5C(=O)N4C)C)OC [XMD8-85] + Cc1nc(Nc2ncc(C(=O)Nc3c(C)cccc3Cl)s2)cc(N2CCN(CCO)CC2)n1 [Dasatinib] (partner 0.075 µM)
In short: as §1

4EGI-1 + Crizotinib = compound: O=C(O)C(Cc1ccccc1[N+](=O)[O-])=NNc1nc(-c2ccc(Cl)c(Cl)c2)cs1 (mixture of isomers) [4EGI-1] + C[C@@H](Oc1cc(-c2cnn(C3CCNCC3)c2)cnc1N)c1c(Cl)ccc(F)c1Cl [Crizotinib] (partner 1 µM)
In short: as §1

4EGI-1 + Olaparib = compound: O=C(O)C(Cc1ccccc1[N+](=O)[O-])=NNc1nc(-c2ccc(Cl)c(Cl)c2)cs1 (mixture of isomers) [4EGI-1] + O=C(c1cc(Cc2n[nH]c(=O)c3ccccc23)ccc1F)N1CCN(C(=O)C2CC2)CC1 [Olaparib] (partner 8 µM)
In short: as §1

| Cell Line | relative viability (XMD8-85 + Lapatinib; first compound 0.08 µM) | relative viability (XMD8-85 + Lapatinib; first compound 0.253 µM) | relative viability (XMD8-85 + Lapatinib; first compound 0.8 µM) | relative viability (XMD8-85 + Lapatinib; first compound 2.53 µM) | relative viability (XMD8-85 + Lapatinib; first compound 8 µM) | relative viability (XMD8-85 + Dasatinib; first compound 0.08 µM) | relative viability (XMD8-85 + Dasatinib; first compound 0.253 µM) | relative viability (XMD8-85 + Dasatinib; first compound 0.8 µM) | relative viability (XMD8-85 + Dasatinib; first compound 2.53 µM) | relative viability (XMD8-85 + Dasatinib; first compound 8 µM) | relative viability (4EGI-1 + Crizotinib; first compound 0.5 µM) | relative viability (4EGI-1 + Crizotinib; first compound 1.581 µM) | relative viability (4EGI-1 + Crizotinib; first compound 5 µM) | relative viability (4EGI-1 + Crizotinib; first compound 15.81 µM) | relative viability (4EGI-1 + Crizotinib; first compound 50 µM) | relative viability (4EGI-1 + Olaparib; first compound 0.5 µM) | relative viability (4EGI-1 + Olaparib; first compound 1.581 µM) | relative viability (4EGI-1 + Olaparib; first compound 5 µM) | relative viability (4EGI-1 + Olaparib; first compound 15.81 µM) | relative viability (4EGI-1 + Olaparib; first compound 50 µM) |
| --- | --- | --- | --- | --- | --- | --- | --- | --- | --- | --- | --- | --- | --- | --- | --- | --- | --- | --- | --- | --- |
| NCI-H1975 | 0.897 | 0.832 | 0.886 | 1.1 | 0.441 | 0.317 | 0.345 | 0.384 | 0.38 | 0.236 | 0.951 | 0.889 | 0.939 | 0.972 | 0.636 | 0.893 | 0.682 | 0.805 | 0.812 | 0.292 |
| NCI-H1703 | – | 1.22 | 1.25 | 1.26 | 0.841 | – | – | – | – | – | 0.754 | 0.597 | 0.681 | 0.521 | 0.269 | 0.601 | 0.46 | 0.409 | 0.52 | 0.331 |
| 201T | 1.07 | 1.01 | 1.02 | 1 | 0.828 | – | 0.641 | 0.55 | 0.616 | 0.529 | 1.06 | 0.98 | 1.01 | 1.01 | 1.02 | 0.859 | 0.753 | 0.869 | 0.777 | 0.675 |
| LK-2 | 0.691 | 0.994 | 0.771 | 0.552 | 0.653 | – | 0.305 | 0.262 | 0.261 | 0.222 | 0.244 | – | 0.253 | 0.256 | 0.216 | 0.86 | – | 0.884 | 0.654 | 0.404 |
| HCC-78 | 0.84 | – | 0.751 | 0.565 | 0.223 | 0.567 | 0.48 | 0.42 | 0.352 | 0.242 | 0.365 | 0.258 | 0.371 | 0.286 | 0.373 | 1.05 | – | 0.881 | 0.816 | 1.13 |
| EMC-BAC-2 | 0.914 | 0.847 | 0.945 | 0.944 | 0.835 | 0.309 | 0.341 | 0.337 | 0.347 | 0.39 | 0.776 | 0.594 | 0.706 | 0.627 | 0.306 | 0.517 | – | 0.5 | 0.37 | 0.2 |
| NCI-H2023 | 0.649 | 0.755 | 0.957 | 1.02 | 0.516 | 0.426 | 0.521 | 0.586 | 0.619 | 0.314 | 0.766 | – | 0.637 | 0.442 | 0.302 | 0.5 | 0.306 | 0.432 | 0.127 | 0.0742 |
| IA-LM | 0.847 | 0.59 | 0.611 | 0.455 | 0.16 | – | – | – | – | – | 0.903 | 0.629 | 0.569 | 0.112 | 0.0835 | 0.767 | 0.771 | 0.644 | 0.154 | 0.0834 |
| NCI-H1563 | 1.04 | 0.87 | 1.01 | 0.822 | 0.7 | 0.493 | 0.431 | 0.448 | 0.465 | 0.412 | 0.905 | 0.742 | 0.857 | 0.81 | 0.627 | – | – | – | – | – |
| LCLC-103H | – | – | – | – | – | 0.425 | 0.476 | 0.575 | 0.505 | 0.379 | 1.05 | 0.926 | 0.937 | 0.857 | 1.05 | 0.72 | 0.658 | 0.728 | 0.699 | 0.415 |
| SW 900 | – | – | – | – | – | 0.615 | 0.608 | 0.641 | 0.549 | 0.417 | – | – | – | – | – | 0.923 | 0.812 | 0.936 | 0.552 | 0.23 |
| NCI-H1395 | 0.9 | 1.11 | 0.927 | 0.95 | 0.679 | 0.438 | 0.414 | 0.42 | 0.428 | 0.309 | – | – | – | – | – | 0.492 | – | 0.47 | 0.457 | 0.394 |
| NCI-H522 | – | – | – | – | – | 0.858 | 0.867 | 0.818 | 0.944 | 0.909 | – | – | – | – | – | 0.694 | 0.776 | 0.617 | 0.574 | 0.471 |
| HCC-44 | 0.942 | 0.884 | 1.1 | 1.06 | 0.959 | – | – | – | – | – | 0.841 | 0.6 | 0.8 | 0.656 | 0.186 | 0.959 | 0.829 | 0.953 | 0.934 | 0.752 |
| EBC-1 | 0.2 | 0.21 | 0.174 | 0.184 | 0.172 | – | – | – | – | – | 0.205 | 0.247 | 0.162 | 0.183 | 0.224 | 0.808 | 0.755 | 0.765 | 0.506 | 0.237 |
| ChaGo-K-1 | – | – | – | – | – | 0.449 | – | 0.613 | 0.57 | 0.577 | 1.23 | – | 1.15 | 0.961 | 0.553 | 0.386 | 0.406 | 0.407 | 0.34 | 0.217 |
| NCI-H1623 | – | – | – | – | – | 0.533 | 0.571 | 0.533 | 0.56 | 0.444 | – | – | – | – | – | – | – | – | – | – |
| NCI-H1648 | – | – | – | – | – | – | – | – | – | – | – | – | – | – | – | 0.742 | 0.79 | 0.965 | 0.566 | 0.48 |
| NCI-H2342 | – | – | – | – | – | 0.296 | 0.316 | 0.32 | 0.32 | 0.331 | – | – | – | – | – | 0.472 | 0.429 | 0.43 | 0.569 | 0.51 |
| NCI-H441 | – | – | – | – | – | 0.42 | 0.576 | 0.728 | 0.715 | 0.516 | 0.968 | 0.472 | 0.72 | 0.461 | 0.213 | 0.654 | 0.425 | 0.597 | 0.315 | 0.192 |
| Calu-6 | 1.02 | 1.09 | 1.11 | 1.03 | 0.899 | – | – | – | – | – | 0.796 | 0.756 | 0.854 | 0.834 | 0.201 | 0.559 | 0.5 | 0.627 | 0.464 | 0.332 |
| NCI-H1793 | 0.845 | 0.826 | 0.857 | 0.781 | 0.814 | 0.384 | 0.403 | 0.404 | 0.413 | 0.338 | – | – | – | – | – | 1.02 | 1.16 | 1.13 | 0.504 | 0.234 |
